Like-named read-outs stand apart in the source and are kept apart here.
How the values were obtained:
Mutant TERT = experiment: HepG2 hTERT mRNA assay (qPCR); type: cell-based, human; conditions: HepG2 cells (mutated TERT), 48 hours, TERT mRNA via qPCR
Protocol: (§1) HepG2 cells (hepatocyte carcinoma (HCC) cells; with mutated TERT) or HEK293T cells (with wild type (wt) TERT) were seeded at 4,000 cells/well in 96-well plates. The following day, test compounds were added to cells for at concentrations of 25 uM, 12.5 uM, 6.25 uM, 3.125 uM, 1.563 uM, 0.781 uM, 0.391 uM, 0.195 uM, 0.098 uM or vehicle control (0.1% DMSO). Each condition was tested in three replicate wells. 48 hours post drug addition, the cells were harvested for RNA using the 96-Magmax RNA Isolation kit (Cat. No. AM1830). RNA was converted to cDNA using the Superscript III First strand cDNA synthesis kit (Cat. No. 18080051). RNA and cDNA concentration and quality were determined using the NanoQuant nucleic acid quantification method. 500 ng cDNA from each sample was used to detect TERT mRNA via qPCR. GUSB was also measured as an internal control and fold change to vehicle control was determined using the delta CT method.

wt TERT = experiment: HEK293T hTERT mRNA assay (qPCR); type: cell-based, human; conditions: Homo sapiens
Protocol: as §1

[1] = HEK-293T, wild type TERT, read-out: wt TERT IC50
[2] = HEK293 cells (wt TERT), 48 hours, class symbols, read-out: wt TERT IC50 uM HEK293

SMILES | IC50 (Mutant TERT; Homo sapiens) | further results
[N-]=[N+]=NCc1ccc(CN2C[C@H](CC(=O)O)C[C@@H](c3ccc(N=[N+]=[N-])cc3)C2)cc1 (single isomer, unassigned) [Compound 145] | 0.5 to 5 µM | –
O=C(O)C[C@H]1C[C@H](c2ccc(C(F)(F)F)cc2)CN(Cc2ccc(C(F)(F)F)c(F)c2)C1 (racemic) [Compound 130, Anti-2-(1-(3-fluoro-4-(trifluoromethyl)benzyl)-5-(4-(trifluoromethyl)phenyl)piperidin-3-yl)acetic acid] | 0.5 to 5 µM | –
N#Cc1cc(CN2C[C@H](CC(=O)O)C[C@@H](c3ccc(C(F)(F)F)cc3)C2)ccc1Cl (racemic) [Compound 140, Anti-2-(1-(4-chloro-3-cyanobenzyl)-5-(4-(trifluoromethyl)phenyl)piperidin-3-yl)acetic acid] | 0.5 to 5 µM | –
O=C(O)C[C@@H]1C[C@@H](c2ccc(Cl)cc2)CN(Cc2ccc(Cl)cc2)C1 [Compound 139, 2-((3S,5S)-1-(4-chlorobenzyl)-5-(4-chlorophenyl)piperidin-3-yl)acetic acid] | 0.5 to 5 µM | –
C#Cc1ccc([C@H]2C[C@H](CC(=O)O)CN(Cc3ccc(C4(C(F)(F)F)N=N4)cc3)C2)cc1 (racemic) [Compound 136, Anti-2-(5-(4-ethynylphenyl)-1-(4-(3-(trifluoromethyl)-3H-diazirin-3-yl)benzyl)piperidin-3-yl)acetic acid] | 0.5 to 5 µM | –
O=C(O)C[C@H]1C[C@H](CCc2ccc(C(F)(F)F)cc2)CN(Cc2ccc(C(F)(F)F)cc2)C1 (racemic) [Compound 133, Anti-2-(1-(4-(trifluoromethyl)benzyl)-5-(4-(trifluoromethyl)phenethyl)piperidin-3-yl)acetic acid] | 0.5 to 5 µM | –
O=C(O)C[C@H]1C[C@H](c2ccc(C(F)(F)F)c(F)c2)CN(Cc2ccc(C(F)(F)F)cc2)C1 (racemic) [Compound 129, Anti-2-(5-(3-fluoro-4-(trifluoromethyl)phenyl)-1-(4-(trifluoromethyl)benzyl)piperidin-3-yl)acetic acid] | 0.5 to 5 µM | –
O=C(O)C[C@@H]1C[C@@H](c2ccc(C(F)(F)F)cc2)CN(Cc2ccccc2F)C1 [Compound 119, 2-((3S,5S)-1-(2-fluorobenzyl)-5-(4-(trifluoromethyl)phenyl)piperidin-3-yl)acetic acid] | 0.5 to 5 µM | –
O=C(O)C[C@@H]1C[C@@H](c2ccc(C(F)(F)F)cc2)CN(Cc2ccc(F)c(F)c2)C1 [Compound 118, 2-((3S,5S)-1-(3,4-difluorobenzyl)-5-(4-(trifluoromethyl)phenyl)piperidin-3-yl)acetic acid] | < 0.5 µM | –
O=C(O)C[C@H]1C[C@H](c2ccc(C(F)(F)F)cc2)CN(Cc2ccc3ccccc3c2)C1 (racemic) [Compound 141, Anti-2-(1-(naphthalen-2-ylmethyl)-5-(4-(trifluoromethyl)phenyl)piperidin-3-yl)acetic acid] | 0.5 to 5 µM | –
O=C(O)CC[C@H]1C[C@H](c2ccc(C(F)(F)F)cc2)CN(Cc2ccc(C(F)(F)F)cc2)C1 [Compound 126, Anti-3-(1-(4-(trifluoromethyl)benzyl)-5-(4-(trifluoromethyl)phenyl)piperidin-3-yl)propanoic acid] | 0.5 to 5 µM | –
N#Cc1cccc([C@H]2C[C@H](CC(=O)O)CN(Cc3ccc(C(F)(F)F)cc3)C2)c1 (racemic) [Compound 127, anti-2-(5-(3-cyanophenyl)1-(4-(trifluoromethyl)benzyl)piperidin-3-yl)acetic acid] | 0.5 to 5 µM | –
O=C(O)C[C@H]1C[C@H](c2ccc(F)c(F)c2)CN(Cc2ccc(C(F)(F)F)cc2)C1 (racemic) [Compound 121, Anti-2-(-5-(3,4-difluorophenyl)-1-(4-(trifluoromethyl)benzyl)piperidin-3-yl)acetic acid] | 0.5 to 5 µM | –
CCC(C(=O)O)[C@@H]1C[C@@H](c2ccc(C(F)(F)F)cc2)CN(Cc2ccc(C(F)(F)F)cc2)C1 (mixture of isomers) [Compound 125, Anti-2-(1-(4-(trifluoromethyl)benzyl)-5-(4-(trifluoromethyl)phenyl)piperidin-3-yl)butanoic acid] | 0.5 to 5 µM | –
C#Cc1ccc([C@@H]2C[C@@H](CC(=O)O)CN(Cc3ccc(C4(C(F)(F)F)N=N4)cc3)C2)cc1 (single isomer, unassigned) [Compound 146] | 0.5 to 5 µM | –
O=C(O)C[C@H]1C[C@H](c2ccc(Cl)cc2)CN(Cc2ccc(C(F)(F)F)cc2)C1 (racemic) [Compound 123, Anti-2-(-5-(4-chlorophenyl)-1-(4-(trifluoromethyl)benzyl)piperidin-3-yl)acetic acid] | < 0.5 µM | –
O=C(O)C[C@H]1C[C@H](c2ccc(Cl)cc2)CN(Cc2ccc(Cl)cc2)C1 (racemic) [Compound 135, Anti-2-(1-(4-chlorobenzyl)-5-(4-chlorophenyl)piperidin-3-yl)acetic acid] | < 0.5 µM | –

SMILES | IC50 (Mutant TERT; Homo sapiens) | further results
O=C(O)CC1CC(c2ccc(C(F)(F)F)cc2)CN(Cc2ccc(C(F)(F)F)cc2)C1 (stereo not shown) [Compound 132] | – | IC50 (Mutant TERT): 0.5 to 5 µM
O=C(O)C[C@@H]1C[C@@H](c2ccc(C(F)(F)F)cc2)CN(Cc2ccc(Cl)cc2)C1 [Compound 116, 2-((3S,5S)-1-(4-chlorobenzyl)-5-(4-(trifluoromethyl)phenyl)piperidin-3-yl)acetic acid] | 0.5 to 5 µM | –
O=C(O)C[C@H]1C[C@H](c2ccc(C(F)(F)F)cc2)CN(Cc2ccc(C(F)(F)F)cc2F)C1 (racemic) [Compound 128, Anti-2-(1-(2-fluoro-4-(trifluoromethyl)benzyl)-5-(4-(trifluoromethyl)phenyl)piperidin-3-yl)acetic acid] | 0.5 to 5 µM | –
N#Cc1cccc(CN2C[C@@H](CC(=O)O)C[C@H](c3ccc(C(F)(F)F)cc3)C2)c1 (racemic) [Compound 124, Anti-2-(-1-(3-cyanobenzyl)-5-(4-(trifluoromethyl)phenyl)piperidin-3-yl)acetic acid] | < 0.5 µM | –
O=C(O)C[C@H]1C[C@H](c2ccc(F)cc2)CN(Cc2ccc(C(F)(F)F)cc2)C1 (racemic) [Compound 122, Anti-2-(5-(4-fluorophenyl)-1-(4-(trifluoromethyl)benzyl)piperidin-3-yl)acetic acid] | 0.5 to 5 µM | –
[N-]=[N+]=NCc1ccc(CN2C[C@@H](CC(=O)O)C[C@H](c3ccc(N=[N+]=[N-])cc3)C2)cc1 (racemic) [Compound 134, anti-2-(1-(4-(azidomethyl)benzyl)-5-(4-azidophenyl)piperidin-3-yl)acetic acid] | 0.5 to 5 µM | –
O=C(O)C[C@H]1C[C@H](c2cccc(Cl)c2)CN(Cc2ccc(C(F)(F)F)cc2)C1 (racemic) [Compound 143, Anti-2-(5-(3-chlorophenyl)-1-(4-(trifluoromethyl)benzyl)piperidin-3-yl)acetic acid] | 5 to 25 µM | –
O=C(O)C[C@@H]1C[C@@H](c2ccc(C(F)(F)F)cc2)CN(Cc2ccc(F)cc2)C1 [Compound 117, 2-((3S,5S)-1-(4-fluorobenzyl)-5-(4-(trifluoromethyl)phenyl)piperidin-3-yl)acetic acid] | 0.5 to 5 µM | –
O=C(O)C[C@H]1C[C@H](c2ccc(C(F)(F)F)cc2)CN(Cc2ccccc2)C1 (racemic) [Compound 138, Anti-2-(1-benzyl-5-(4-(trifluoromethyl)phenyl)piperidin-3-yl)acetic acid] | 0.5 to 5 µM | –
C#Cc1ccc([C@H]2C[C@H](CC(=O)O)CN(Cc3ccc(N=[N+]=[N-])cc3)C2)cc1 (racemic) [Compound 137, Anti-2-(1-(4-azidobenzyl)-5-(4-ethynylphenyl)piperidin-3-yl)acetic acid] | 0.5 to 5 µM | –
COc1cccc(CN2C[C@H](CC(=O)O)C[C@@H](c3ccc(C(F)(F)F)cc3)C2)c1 [Compound 110, 2-((3S,5S)-1-(3-methoxybenzyl)-5-(4-(trifluoromethyl)phenyl)piperidin-3-yl)acetic acid] | > 25 µM | IC50 (wt TERT; [1]): > 25 µM; IC50 (wt TERT; [2]): > 25 µM
CS(=O)(=O)c1ccc(CN2C[C@H](CC(=O)O)C[C@@H](c3ccc(C(F)(F)F)cc3)C2)cc1 [Compound 120, 2-((3S,5S)-1-(4-(methylsulfonyl)benzyl)-5-(4-(trifluoromethyl)phenyl)piperidin-3-yl)acetic acid] | 0.5 to 5 µM | –
C#Cc1ccc(CN2C[C@H](CC(=O)O)C[C@@H](c3ccc(N=[N+]=[N-])cc3)C2)cc1 (single isomer, unassigned) [Compound 144] | 0.5 to 5 µM | –
O=C(O)C[C@H]1C[C@H](c2ccc(C(F)(F)F)cc2)CN(Cc2ccc(C(F)(F)F)cc2Cl)C1 (racemic) [Compound 131, Anti-2-(-1-(2-chloro-4-(trifluoromethyl)benzyl)-5-(4-(trifluoromethyl)phenyl)piperidin-3-yl)acetic acid] | 0.5 to 5 µM | –
O=C(O)C[C@@H]1C[C@@H](c2ccc(Cl)cc2)CN(Cc2ccc(C(F)(F)F)cc2)C1 (single isomer, unassigned) [Compound 142] | < 0.5 µM | –
O=C(O)C[C@@H]1C[C@@H](c2ccc(C(F)(F)F)cc2)CN(Cc2cccc(C(F)(F)F)c2)C1 [Compound 111, 2-((3S,5S)-1-(3-(trifluoromethyl)benzyl)-5-(4-(trifluoromethyl)phenyl)piperidin-3-yl)acetic acid] | < 0.5 µM | IC50 (wt TERT; [1]): > 25 µM; IC50 (wt TERT; [2]): > 25 µM

Source: US20230416202A1, “Small Molecule Compounds and Compositions” (Telo Therapeutics, Inc., priority 2020, published 2023)
